Data on two compounds can be found in US11173124B2, “Oral delivery of GLP-1 peptide analogs” (MEDIMMUNE LIMITED, priority 2017, dated 2021).

The target of data set [1] is T1, GLP-1 receptor (Rattus norvegicus, UniProt P32301).
T1 construct: endogenous in cells; host or cells: INS-1E rat insulinoma cells (printed as 'INSle')
T1 sequence (P32301 22-463): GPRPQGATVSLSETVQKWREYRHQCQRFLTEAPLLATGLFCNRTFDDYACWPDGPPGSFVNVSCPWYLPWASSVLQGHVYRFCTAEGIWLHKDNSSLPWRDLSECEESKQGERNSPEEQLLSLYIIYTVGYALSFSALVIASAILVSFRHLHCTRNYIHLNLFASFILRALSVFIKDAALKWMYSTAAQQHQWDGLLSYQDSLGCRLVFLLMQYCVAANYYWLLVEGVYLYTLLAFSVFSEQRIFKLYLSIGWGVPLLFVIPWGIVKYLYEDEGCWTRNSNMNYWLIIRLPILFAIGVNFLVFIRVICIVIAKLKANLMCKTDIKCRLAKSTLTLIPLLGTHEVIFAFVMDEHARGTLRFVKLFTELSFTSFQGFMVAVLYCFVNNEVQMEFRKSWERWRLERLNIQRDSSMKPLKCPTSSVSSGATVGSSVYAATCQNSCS
As to the kind of experiment: cAMP assay, INSle assay as described in WO 2016/198544. The following applies: in vitro potency at the GLP-1 receptor. The class given is cell-based. The text has this: The biological activity of a GLP-1 peptide analog can be evaluated, for example, by assessing the ability of the peptide to activate a receptor (e.g., a GLP-1 receptor). Peptide activation of such receptors results in downstream accumulation of cAMP second messenger which can be measured in a functional activity assay.
For orientation: cAMP levels reflect the balance of adenylyl cyclase and phosphodiesterase activity.

Data set [2] can be described thus: Rat intraduodenal study, MEDI7219 with new gallate derivatives and other enhancers (Example 8). The class given is in vivo. How it is done:
The next rat ID administration study was performed to assess the oral bioavailability and pharmacokinetics of MEDI7219 (SEQ ID NO:2) formulations containing new gallate derivatives, sodium 2-(3,4,5-trihydroxybenzoyloxy) acetate and butanoate, sodium cholate with propyl gallate, sodium caprate with propyl gallate, sodium caprate with propyl gallate and citric acid, and sucrose monododecanoate.

The nature of data set [3]: physchem. From the text:
A known amount of the permeation enhancer, the peptide, or both were combined with increasing amounts of buffer until the permeation enhancer and/or the peptide were completely solubilized.

A short description of data set [4]: Canine study, MEDI7219 tablets in acid-resistant capsules (Example 13). The class given is in vivo. Here is the method:
The formulations tested in this study contained the MEDI7219 (SEQ ID NO:2) peptide, whereas the SEQ ID NO:6 peptide was used in tablet formulations for the previous canine study in Example 12. Tablets were placed in acid-resistant capsules (one tablet/capsule) prior to dosing. […] (Table 20). This formulation contained 0.1 mg/kg MEDI7219 (SEQ ID NO:2) peptide and 300 mg total permeation enhancer (PE) consisting of a 1:2 ratio of sodium chenodeoxycholate to propyl gallate. This ratio worked better compared to a 2:1 ratio of these permeation enhancers (Group 9, Table 20). This study also confirmed the utility of Tris base as a pH stabilizer.

Data set [5] in a line: Canine study, MEDI7219 multi-unit particulate (MUPS) formulations (Example 16). The class given is in vivo. The following applies: Oral capsule, MUPS 9 mg peptide, 88 mg Na CDC, 190 mg PG. Here is the method: Ten different Multi-unit particulate (MUPS) formulations were prepared (Table 23) using the MEDI7219 (SEQ ID NO:2) peptide and permeation enhancers. The manufacturing process for the MUPS formulation was as follows. A solution of MEDI7219 (SEQ ID NO:2) peptide, sodium chenodeoxycholate and propyl gallate was prepared in water and sprayed onto sugar spheres in a Glatt Mini fluid bed coater. Following drying, sugar spheres coated with peptide and permeation enhancers were coated to result in the compositions described in Table 23.

Data set [6] deals with Caco-2 cells. Put plainly: Caco-2 study, Permeability (%) of lipidated peptides (Example 3). The class given is in vitro ADME, human. Particulars: 0.1 mg/mL peptide. In outline:
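Caco-2 monolayers on Transwell filters; peptides with permeation enhancers added apically, incubated for set periods. Peptide in starting sample and apical and basal media measured by HPLC. Permeability (%) = cumulative amount transported divided by original loading amount.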

≈ marks a conversion by molar mass, not a printed value. Starred links: 1 amine or outer side, 2 acyl side, 3 side chain; linkers in the order of their positions; H or OH if unused. Non-standard residues stand in square brackets, D forms with d. Residues, ends and D or L forms follow the SMILES beside them. Groups on a side chain read outwards from the residue. *: point of attachment. γGlu = O=C(O)[C@H](CCC(=O)[*:2])N[*:1]; αMeF = C[C@](N)(Cc1ccccc1)C(=O)O; αMeK = C[C@](N)(CCCCN)C(=O)O; Lauroyl = CCCCCCCCCCCC(=O)*; αMeS = C[C@](N)(CO)C(=O)O; AEEA = NCCOCCOCC(=O)O; Aib = CC(C)(N)C(=O)O

What is called EC50 is the concentration at which the effect is half-maximal. Lower therefore signals a more potent agent. The solubility is how much of the substance goes into solution per volume. As for `CCCCCCCCCCCC(=O)N[C@@H](CCC(=O)NCCOCCOCC(=O)NCCOCCOCC(=O)NCCCC[C@H](NC(=O)[C@H](C)NC(=O)[C@@H](NC(=O)[C@](C)(Cc1ccccc1)NC(=O)[C@H](CCC(=O)O)NC(=O)[C@](C)(CCCCN)NC(=O)[C@H](C)NC(=O)[C@H](C)NC(=O)[C@H](CCC(=O)O)NC(=O)CNC(=O)[C@H](CCC(=O)O)NC(=O)[C@H](CC(C)C)NC(=O)[C@H](CCCCNC(=O)COCCOCCNC(=O)COCCOCCNC(=O)CC[C@H](NC(=O)CCCCCCCCCCC)C(=O)O)NC(=O)[C@H](CO)NC(=O)[C@](C)(CO)NC(=O)[C@@H](NC(=O)[C@H](CC(=O)O)NC(=O)[C@H](CO)NC(=O)[C@@H](NC(=O)[C@](C)(Cc1ccccc1)NC(=O)[C@H](CO)NC(=O)CNC(=O)[C@H](CCC(=O)O)NC(=O)C(C)(C)NC(=O)[C@@H](N)Cc1c[nH]cn1)[C@@H](C)O)C(C)C)[C@@H](C)CC)C(=O)N[C@H](C(=O)N[C@H](C(=O)N[C@@H](CCC(=O)O)C(=O)NCC(=O)NCC(N)=O)C(C)C)C(C)C)C(=O)O` [MEDI7219, Free-H-[AIB]-EGS-[αMePhe]-TSDV-[αMeSer]-SK[(PEG2)2-γE-Lauroyl]-LEGEAA-[αMeLys]-E-[αMePhe]-IAK[(PEG2)2-γE-Lauroyl]-VVEGG-amide] (H-H[Aib]EGS[αMeF]TSDV[αMeS]SK([AEEA-AEEA-γGlu-Lauroyl])LEGEAA[αMeK]E[αMeF]IAK([AEEA-AEEA-γGlu-Lauroyl])VVEGG-NH2), the EC50 in data set [1] was about 0.116 nM. The “Bioavailability F (%)” value in data set [2] (ID, 1 mg/kg, Group 6: 12.5 mg/mL Sodium Cholate, 25 mg/mL PG (25 + 50 mg/kg)) is “no bioavailability”; in data set [2] (ID, 1 mg/kg, Group 7: 12.5 mg/mL Sodium Caprate, 25 mg/mL PG (25 + 50 mg/kg)), about 0.6%; in data set [2] (ID, 1 mg/kg, Group 8: 12.5 mg/mL Sodium Caprate, 25 mg/mL PG, 10 mg/mL Citric Acid), 0 (NA) %; in data set [2] (IV, 0.01 mg/kg, Group 1 control in 50 mM Tris, 150 mM Mannitol, 0.02% Polysorbate 80, pH 8.5), 100%. Further, in data set [2] (ID, addition of citric acid to sodium caprate and propyl gallate), the exposure entry is given as “below level of quantification”. In addition, the solubility in data set [3] (pH 5, aqueous buffer, thermodynamic from solid) is under 10 mg/mL; in data set [3] (pH 5.5), under 10 mg/mL; in data set [3] (pH 6, aqueous buffer, thermodynamic from solid), 75 mg/mL (≈ 17.2 mM); in data set [3] (pH 7), 150 mg/mL (≈ 34.5 mM); in data set [3] (pH 7.5), 180 mg/mL (≈ 41.4 mM); in data set [3] (pH 8) it was 200 mg/mL (≈ 45.9 mM). Moreover, in data set [3] (pH 9), the solubility was over 200 mg/mL. Besides, the “solubility as a function of pH (in words)” value in data set [3] (pH 7.5) is given as “increased in the range of pH 7.0 to 9.0”. In addition, the F in data set [4] (Intravenous, 0.01 mg/kg, 0.1 mg/mL in 50 mM Tris, 150 mM Mannitol, 0.02% Polysorbate 80, pH8.0) came out at 100%; in data set [4] (Oral tablet in capsule, Group 8: 1 mg peptide, 100 mg Na CDC, 200 mg PG), 10.7%; in data set [4] (Oral tablet in capsule, Group 9: 1 mg peptide, 200 mg Na CDC, 100 mg PG), 5.0%; in data set [4] (Oral tablet in capsule, Group 12: 1 mg peptide, 33.3 mg Na CDC, 16.6 mg PG (NO TRIS)) it was 0%; in data set [5] (10% Carbopol 71G Mucoadhesive polymer + 25% pH 5.5 EC), 0.393%; in data set [5] (10% Carbopol 71G Mucoadhesive polymer + 25% pH 7.0 EC) it was 0.582%. The F in data set [5] (10% Polycarbophill AA Mucoadhesive polymer + 25% pH 5.5 EC) is given as 0.124%; in data set [5] (10% Polycarbophill AA Mucoadhesive polymer + 25% pH 7.0 EC), 0.572%; in data set [5] (+ 10% Eudragit(RL + RS) + 25% pH 5.5 EC) it was 0.537%; in data set [5] (pH 5.5 EC), 1.30%; in data set [5] (pH 7.0 EC), 2.54%.

As to `CC[C@H](C)[C@H](NC(=O)C(C)(Cc1ccccc1)NC(=O)[C@H](CCC(=O)O)NC(=O)[C@H](CCCCNC(=O)COCCOCCNC(=O)COCCOCCNC(=O)CC[C@H](NC(=O)CCCCCCCCCCCCCCCCC(=O)O)C(=O)O)NC(=O)[C@H](C)NC(=O)[C@H](C)NC(=O)[C@H](CCC(=O)O)NC(=O)CNC(=O)[C@H](CCC(=O)O)NC(=O)[C@H](CC(C)C)NC(=O)C(C)(Cc1ccccc1)NC(=O)[C@H](CO)NC(=O)C(C)(CO)NC(=O)[C@@H](NC(=O)[C@H](CC(=O)O)NC(=O)[C@H](CO)NC(=O)[C@@H](NC(=O)C(C)(Cc1ccccc1)NC(=O)[C@H](CO)NC(=O)CNC(=O)[C@H](CCC(=O)O)NC(=O)C(C)(C)NC(=O)[C@@H](N)Cc1c[nH]cn1)[C@@H](C)O)C(C)C)C(=O)N[C@@H](C)C(=O)NC(C)(Cc1ccccc1)C(=O)N[C@H](C(=O)N[C@H](C(=O)NC(C)(CCCCN)C(=O)NCC(=O)NCC(N)=O)C(C)C)C(C)C` (stereo partly drawn) [SEQ ID NO: 3, Free-H-[AIB]-EGS-[αMePhe]-TSDV-[αMeSer]-S-[αMePhe]-LEGEAAK[(PEG2)2-γE-Stearate]-E-[αMePhe]-IA-[αMePhe]-VV-[αMeLys]-GG-amide], the “Permeability (%)” value in data set [6] (5.0 mg/mL Chitosan) was found to be 0%; in data set [6] (5.0 mg/mL Octyl β-D-glucopyranoside) it was 0%; in data set [6] (5.0 mg/mL Sodium Chenodeoxycholate), 1.7%; in data set [6] (5.0 mg/mL Tri-Me-Chitosan) it was 0%; in data set [6] (25 mg/mL Chitosan) it was 0%; in data set [6] (25 mg/mL Octyl β-D-glucopyranoside), 2.0%. Also, the “Permeability (%)” value turned out to be 12.6% in data set [6] (25 mg/mL Sodium Chenodeoxycholate), 0% in data set [6] (25 mg/mL Tri-Me-Chitosan) and 0% in data set [6] (no enhancer).
